One assay has as its target T1, human CYP11B1 (Homo sapiens, UniProt P15538).
T1 construct: expressed in transfected cells
T1 sequence (P15538 25-503): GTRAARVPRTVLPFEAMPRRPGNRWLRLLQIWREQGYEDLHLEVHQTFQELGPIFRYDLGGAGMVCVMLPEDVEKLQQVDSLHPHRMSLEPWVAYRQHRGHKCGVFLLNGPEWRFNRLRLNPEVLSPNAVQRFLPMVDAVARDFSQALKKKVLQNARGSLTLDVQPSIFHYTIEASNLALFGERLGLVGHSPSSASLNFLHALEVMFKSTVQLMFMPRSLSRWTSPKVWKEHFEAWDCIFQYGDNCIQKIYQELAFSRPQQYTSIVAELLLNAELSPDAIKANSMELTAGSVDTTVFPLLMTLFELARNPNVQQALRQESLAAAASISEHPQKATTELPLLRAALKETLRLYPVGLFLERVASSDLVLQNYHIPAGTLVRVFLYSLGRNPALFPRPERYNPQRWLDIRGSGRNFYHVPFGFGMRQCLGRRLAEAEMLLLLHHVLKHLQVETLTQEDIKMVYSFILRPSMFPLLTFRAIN
The assay can be described thus: G-402 cellular enzyme assay, human CYP11B1 (cortisol release, HTRF). To be noted: G-402 cells, 1 μM Deoxycortisol. The format is cell-based. The essentials:
(§1)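 Supernatant steroid product measured by HTRF (aldosterone for CYP11B2, cortisol for CYP11B1) after 16 h exposure of stably transfected G-402 cells to compound. Substrates were 1 μM deoxycorticosterone and 1 μM deoxycortisol, respectively; EC50 derived from a four-parameter MMF curve fit.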

For the next assay, the target named is T2, human CYP11B2 (Homo sapiens, UniProt P19099).
T2 construct: expressed in transfected cells
T2 sequence (P19099 25-503): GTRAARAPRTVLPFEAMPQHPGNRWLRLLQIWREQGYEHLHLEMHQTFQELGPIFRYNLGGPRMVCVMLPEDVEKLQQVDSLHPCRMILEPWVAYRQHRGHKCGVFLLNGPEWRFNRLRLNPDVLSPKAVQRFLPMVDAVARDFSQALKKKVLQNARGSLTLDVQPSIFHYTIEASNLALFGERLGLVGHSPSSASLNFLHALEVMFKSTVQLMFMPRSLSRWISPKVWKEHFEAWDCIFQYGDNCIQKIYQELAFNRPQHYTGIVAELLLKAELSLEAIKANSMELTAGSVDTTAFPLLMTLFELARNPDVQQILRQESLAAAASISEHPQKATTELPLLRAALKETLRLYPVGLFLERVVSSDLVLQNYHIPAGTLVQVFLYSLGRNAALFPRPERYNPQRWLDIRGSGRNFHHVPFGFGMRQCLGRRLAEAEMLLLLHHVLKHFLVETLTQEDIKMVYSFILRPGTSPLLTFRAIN
The assay can be described thus: G-402 cellular enzyme assay, human CYP11B2 (aldosterone release, HTRF). In kind it is cell-based. To be noted: G-402 cells, 1 μM Deoxycorticosterone. Put shortly: as §1
(In TR-FRET formats the signal depends on donor and acceptor labels being close together.)

The values that follow come from US9133158B2, “Bicyclic dihydroisoquinoline-1-one derivatives” (Hoffmann-La Roche Inc., priority 2011, dated 2015).

Structures are written as SMILES.

What is called EC50 is the concentration giving half of the maximal effect. `O=C1c2ccc(Cl)cc2CCN1c1cncc(CN2CC3(COC3)C2)c1` [Example 171, 6-Chloro-2-[5-(2-oxa-6-aza-spiro[3.3]hept-6-ylmethyl)-pyridin-3-yl]-3,4-dihydro-2H-isoquinolin-1-one]: the concentration giving a half-maximal response (EC50) turned out to be 0.0889 µM on human CYP11B1 and 0.0172 µM on human CYP11B2.
Regarding `Cc1cnn(Cc2cncc(N3CCc4cc(Cl)ccc4C3=O)c2)c1` [Example 187, 6-Chloro-2-[5-(4-methyl-pyrazol-1-ylmethyl)-pyridin-3-yl]-3,4-dihydro-2H-isoquinolin-1-one], the half-maximal effective concentration (EC50) on human CYP11B1 came out at 2.23 µM; at human CYP11B2, 0.137 µM.
As for `O=C1c2ccc(Cl)c(Cl)c2CCN1c1cccnc1` [Example 95, 5,6-Dichloro-2-pyridin-3-yl-3,4-dihydro-2H-isoquinolin-1-one], the EC50 on human CYP11B1 was 10.3 µM; on human CYP11B2 it was 0.327 µM.
The like results for `COc1ccc2c(n1)C(C)(C)N(c1cccnc1)C2=O` [Example 300, 2-Methoxy-7,7-dimethyl-6-pyridin-3-yl-6,7-dihydro-pyrrolo[3,4-b]pyridin-5-one] were, in that order, 14.3 µM and 0.216 µM.
On the same counts, the results for `O=C1c2ccc(Cl)cc2CCN1c1cncc2ccccc12` [Example 73, 6-Chloro-3,4-dihydro-[2,4′]biisoquinolinyl-1-one] are 0.251 µM and 0.0135 µM.
The like results for `O=C1c2ccc(Cl)cc2CCN1c1cncc(CNc2cccc(Cl)c2)c1` [Example 261, 6-Chloro-2-{5-[(3-chloro-phenylamino)-methyl]-pyridin-3-yl}-3,4-dihydro-2H-isoquinolin-1-one] were, in that order, 0.105 µM and 0.0267 µM.
On to `O=C1c2ccc(Cl)cc2CCN1c1cncc(Cc2ccccc2C(F)(F)F)c1` [Example 213, 6-Chloro-2-[5-(2-trifluoromethyl-benzyl)-pyridin-3-yl]-3,4-dihydro-2H-isoquinolin-1-one], for which the 50% effective concentration (EC50) on human CYP11B1 was found to be 0.278 µM; at human CYP11B2, 0.0391 µM.
Turning to `Cc1ccncc1C(=O)NCc1cncc(N2C(=O)c3ccc(Cl)cc3C2(C)C)c1` [Example 440, N-[5-(6-Chloro-1,1-dimethyl-3-oxo-1,3-dihydro-isoindol-2-yl)-pyridin-3-ylmethyl]-4-methyl-nicotinamide], the EC50 was 1.27 µM on human CYP11B1 and 0.0176 µM at human CYP11B2.
On the same counts, the results for `O=C1c2ccc(Cl)cc2CCN1c1cncc(C(O)c2ccccc2)c1` (stereo not shown) [Example 34, 6-Chloro-2-[5-(hydroxy-phenyl-methyl)-pyridin-3-yl]-3,4-dihydro-2H-isoquinolin-1-one] are 0.287 µM and 0.0316 µM.
On the same counts, the results for `CC1Cc2cccc(Cl)c2C(=O)N1c1cccnc1` (stereo not shown) [Example 93, 8-Chloro-3-methyl-2-pyridin-3-yl-3,4-dihydro-2H-isoquinolin-1-one] are 14 µM and 0.775 µM.
On the same counts, the results for `CC1(C)c2cc(Cl)ccc2C(=O)N1c1cncc(CNC(=O)c2cccnc2)c1` [Example 438, N-[5-(6-Chloro-1,1-dimethyl-3-oxo-1,3-dihydro-isoindol-2-yl)-pyridin-3-ylmethyl]-nicotinamide] are 0.202 µM and 0.0038 µM.
Consider `Cc1cn[nH]c1-c1cncc(N2CCc3cc(Cl)ccc3C2=O)c1` [Example 420, 6-Chloro-2-[5-(4-methyl-2H-pyrazol-3-yl)-pyridin-3-yl]-3,4-dihydro-2H-isoquinolin-1-one], for which the results for the concentration giving a half-maximal response (EC50) on human CYP11B1 and at human CYP11B2 were 0.281 µM and 0.0274 µM, respectively.
On the same counts, the results for `CCC1c2cc(Cl)ccc2C(=O)N1c1cncc(OC)c1` (stereo not shown) [Example 127, 5-Chloro-3-ethyl-2-(5-methoxy-pyridin-3-yl)-2,3-dihydro-isoindol-1-one] are 0.266 µM and 0.0545 µM.
On the same counts, the results for `COc1cncc(N2CCc3nc(O)ccc3C2=O)c1` [Example 139, 2-Hydroxy-6-(5-methoxy-pyridin-3-yl)-7,8-dihydro-6H-[1,6]naphthyridin-5-one] are 11.2 µM and 0.953 µM.
On the same counts, the results for `Cn1nccc1Cc1cncc(N2CCc3cc(Cl)ccc3C2=O)c1` [Example 208, 6-Chloro-2-[5-(2-methyl-2H-pyrazol-3-ylmethyl)-pyridin-3-yl]-3,4-dihydro-2H-isoquinolin-1-one] are 0.0189 µM and 0.0021 µM.
For the compound `Cn1nccc1CNc1cncc(N2CCc3cc(Cl)ccc3C2=O)c1` [Example 226, 6-Chloro-2-{5-[(2-methyl-2H-pyrazol-3-ylmethyl)-amino]-pyridin-3-yl}-3,4-dihydro-2H-isoquinolin-1-one], the EC50 on human CYP11B1 came to 3.4 µM; at human CYP11B2 it was 0.0534 µM.
On the same counts, the results for `CCS(=O)(=O)NCc1cncc(N2Cc3cc(Cl)ccc3C2=O)c1` [Example 115, Ethanesulfonic acid [5-(5-chloro-1-oxo-1,3-dihydro-isoindol-2-yl)-pyridin-3-ylmethyl]-amide] are 13.5 µM and 0.682 µM.
For `O=C1c2ccc(Cl)cc2CCN1c1cncc(CO)c1` [Example 3, 6-Chloro-2-(5-hydroxymethyl-pyridin-3-yl)-3,4-dihydro-2H-isoquinolin-1-one], the EC50 was 3.72 µM at human CYP11B1 and 0.0965 µM at human CYP11B2.
The like results for `COC(=O)COc1cncc(N2CCc3cc(Cl)ccc3C2=O)c1` [Example 255, [5-(6-Chloro-1-oxo-3,4-dihydro-1H-isoquinolin-2-yl)-pyridin-3-yloxy]-acetic acid methyl ester] were, in that order, 7.61 µM and 2.8 µM.
On the same counts, the results for `COc1cncc(N2CCc3cc(Cl)c(F)cc3C2=O)c1` [Example 100, 6-Chloro-7-fluoro-2-(5-methoxy-pyridin-3-yl)-3,4-dihydro-2H-isoquinolin-1-one] are 0.485 µM and 0.0172 µM.
On the same counts, the results for `CCC(=O)NC1CCCc2c1cncc2N1Cc2cc(Cl)ccc2C1=O` (single isomer, unassigned) [Example 314, N-[(R or S)-4-(5-Chloro-1-oxo-1,3-dihydro-isoindol-2-yl)-5,6,7,8-tetrahydro-isoquinolin-8-yl]-propionamide] are 5.23 µM and 0.0282 µM.
Consider `CCc1nccn1Cc1cncc(N2CCc3cc(Cl)ccc3C2=O)c1` [Example 191, 6-Chloro-2-[5-(2-ethyl-imidazol-1-ylmethyl)-pyridin-3-yl]-3,4-dihydro-2H-isoquinolin-1-one], for which the results for the EC50 at human CYP11B1 and on human CYP11B2 were 8.55 µM and 0.394 µM, respectively.
As to `COc1cncc(N2CCc3nc(Cl)ccc3C2=O)c1` [Example 96, 2-Chloro-6-(5-methoxy-pyridin-3-yl)-7,8-dihydro-6H-[1,6]naphthyridin-5-one], the EC50 at human CYP11B1 was determined as 0.533 µM; at human CYP11B2, 0.0458 µM.
As for `CCC1c2ccc(Cl)cc2C(=O)N1c1cncc(CNS(C)(=O)=O)c1` (single isomer, unassigned) [Example 405, N-[5-((S or R)-5-Chloro-1-ethyl-3-oxo-1,3-dihydro-isoindol-2-yl)-pyridin-3-ylmethyl]-methane-sulfonamide], the half-maximal effective concentration (EC50) at human CYP11B1 stood at 35.2 µM; on human CYP11B2 it was 0.546 µM.
On the same counts, the results for `CC1(C)c2cc(Cl)ccc2C(=O)N1c1cncc(OC(F)F)c1` [Example 131, 5-Chloro-2-(5-difluoromethoxy-pyridin-3-yl)-3,3-dimethyl-2,3-dihydro-isoindol-1-one] are 0.264 µM and 0.0119 µM.
The like results for `CCC1c2cc(Cl)ccc2C(=O)N1c1cncc(F)c1` (stereo not shown) [Example 126, 5-Chloro-3-ethyl-2-(5-fluoro-pyridin-3-yl)-2,3-dihydro-isoindol-1-one] were, in that order, 3.56 µM and 0.0379 µM.
The like results for `O=C1c2ccc(Cl)cc2CCN1c1cncc(CNc2ccc(Cl)cc2)c1` [Example 260, 6-Chloro-2-{5-[(4-chloro-phenylamino)-methyl]-pyridin-3-yl}-3,4-dihydro-2H-isoquinolin-1-one] were, in that order, 0.345 µM and 0.471 µM.
`Cc1cnn(C)c1-c1cncc(N2CCc3cc(Cl)ccc3C2=O)c1` [Example 245, 6-Chloro-2-[5-(2,4-dimethyl-2H-pyrazol-3-yl)-pyridin-3-yl]-3,4-dihydro-2H-isoquinolin 1-one]: the EC50 turned out to be 0.0257 µM at human CYP11B1 and 0.0011 µM at human CYP11B2.
On the same counts, the results for `CC(C)c1nccn1Cc1cncc(N2C(=O)c3ccc(Cl)cc3CC2C)c1` (stereo not shown) [Example 87, 6-Chloro-2-[5-(2-isopropyl-imidazol-1-ylmethyl)-pyridin-3-yl]-3-methyl-3,4-dihydro-2H-isoquinolin-1-one] are 9.37 µM and 0.251 µM.
